Assay results reported in PubChem BioAssay (NCI).
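All cell lines were grown in 96-well plates and treated with compound for 48 hours. At the GI50, growth is halved. TGI is the concentration that stops growth completely.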

Legend:
Test in all cases: inhibition of tumour cell growth, NCI panel, 48 h
[1] = system: A498 renal
[2] = system: MDA-MB-231 breast
[3] = system: HS 578T breast
[4] = system: 786-0 renal
[5] = system: U251 CNS
[6] = system: SR leukemia
[7] = system: OVCAR-5 ovarian
[8] = system: SNB-75 CNS
[9] = system: SF-268 CNS
[10] = system: HOP-62 NSCLC
[11] = system: IGROV1 ovarian
[12] = system: RXF 393 renal
[13] = system: OVCAR-4 ovarian
[14] = system: COLO 205 colon
[15] = system: RPMI-8226 leukemia
[16] = system: SNB-19 CNS
[17] = system: SN12C renal
[18] = system: NCI-H460 lung
[19] = system: HCT-116 colon
[20] = system: DU-145 prostate
[21] = system: NCI-H226 lung
[22] = system: CCRF-CEM leukemia
[23] = system: MDA-MB-435
[24] = system: OVCAR-3 ovarian
[25] = system: MCF7 breast
[26] = system: K-562 leukemia
[27] = system: PC-3 prostate
[28] = system: T-47D breast
[29] = system: SF-295 CNS
[30] = system: NCI/ADR-RES ovarian
[31] = system: SK-MEL-5 melanoma
[32] = system: BT-549 breast
[33] = system: CAKI-1 renal
[34] = system: HCT-15 colon
[35] = system: SK-MEL-28 melanoma
[36] = system: A549 NSCLC
[37] = system: UACC-257 melanoma
[38] = system: HL-60(TB) leukemia
[39] = system: HOP-92 NSCLC
[40] = system: HCC-2998 colon
[41] = system: OVCAR-8 ovarian
[42] = system: M14 melanoma
[43] = system: UO-31 renal
[44] = system: NCI-H23 lung
[45] = system: KM12 colon
[46] = system: LOX IMVI melanoma
[47] = system: MOLT-4 leukemia
[48] = system: EKVX NSCLC
[49] = system: UACC-62 melanoma
[50] = system: TK-10 renal
[51] = system: SW-620 colon
[52] = system: SK-OV-3 ovarian
[53] = system: ACHN renal
[54] = system: SK-MEL-2 melanoma
[55] = system: HT29 colon
[56] = system: SF-539 CNS
[57] = system: NCI-H522 lung
[58] = system: MALME-3M melanoma

Work on `CCn1cc(CNc2ccc(C(=O)Nc3cc4cc(OC)c(OC)cc4c(C)n3)cc2)c(C)n1` yielded a GI50 [1] of 4.29 µM, a TGI [1] greater than 100 µM and a GI50 [2] greater than 100 µM. It also gave a TGI [2] greater than 100 µM, a GI50 [3] of 5.32 µM and a TGI [3] greater than 100 µM. The GI50 [4] was 28.6 µM, the TGI [4] was greater than 100 µM and the GI50 [5] was 3.64 µM. The TGI [5] was greater than 100 µM, the GI50 [6] was 2.71 µM and the TGI [6] was greater than 100 µM. For the same compound, the GI50 [7] was greater than 100 µM, the TGI [7] was greater than 100 µM and the GI50 [8] was 4.72 µM. The TGI [8] was greater than 100 µM, the GI50 [9] was 33.6 µM and the TGI [9] was greater than 100 µM. The GI50 [10] was 2.71 µM, the TGI [10] was 7.18 µM and the GI50 [11] was greater than 100 µM. For the same compound, the TGI [11] was greater than 100 µM, the GI50 [12] was greater than 100 µM and the TGI [12] was greater than 100 µM. The GI50 [13] was 3.07 µM and the TGI [13] was greater than 100 µM.

`COC(=O)C1(C(=O)OC)N=C(C)OC1c1ccccc1O` (centres undefined) gave a TGI [1] greater than 100 µM, a TGI [14] greater than 100 µM and a TGI [15] greater than 100 µM. It also gave a TGI [16] greater than 100 µM, a TGI [17] greater than 100 µM and a TGI [18] greater than 100 µM. The TGI [19] was greater than 100 µM, the TGI [20] was greater than 100 µM and the TGI [21] was greater than 100 µM. It also gave a TGI [22] greater than 100 µM, a TGI [23] greater than 100 µM and a TGI [24] greater than 100 µM. The TGI [25] was greater than 100 µM, the TGI [26] was greater than 100 µM and the TGI [27] was greater than 100 µM. For the same compound, the TGI [28] was greater than 100 µM, the TGI [29] was greater than 100 µM and the TGI [30] was greater than 100 µM. The TGI [4] was greater than 100 µM, the TGI [31] was greater than 100 µM and the TGI [32] was greater than 100 µM. For the same compound, the TGI [33] was greater than 100 µM, the TGI [34] was greater than 100 µM and the TGI [5] was greater than 100 µM. For the same compound, the TGI [35] was greater than 100 µM, the TGI [36] was greater than 100 µM and the TGI [37] was greater than 100 µM. For the same compound, the TGI [38] was greater than 100 µM, the TGI [6] was greater than 100 µM and the TGI [39] was greater than 100 µM. For the same compound, the TGI [40] was greater than 100 µM, the TGI [7] was greater than 100 µM and the TGI [41] was greater than 100 µM. It also gave a TGI [42] greater than 100 µM, a TGI [43] greater than 100 µM and a TGI [44] greater than 100 µM. It also gave a TGI [45] greater than 100 µM, a TGI [8] greater than 100 µM and a TGI [46] greater than 100 µM. The TGI [47] was greater than 100 µM, the TGI [10] was greater than 100 µM and the TGI [48] was greater than 100 µM. It also gave a TGI [49] greater than 100 µM, a TGI [11] greater than 100 µM and a TGI [50] greater than 100 µM. For the same compound, the TGI [12] was greater than 100 µM, the TGI [51] was greater than 100 µM and the TGI [52] was greater than 100 µM. For the same compound, the TGI [53] was greater than 100 µM, the TGI [13] was greater than 100 µM and the TGI [54] was greater than 100 µM.

With `Cc1cc(CCC(=O)NCCNc2c3ccccc3nc3ccccc23)cc(C)c1O[Si](C)(C)C(C)(C)C` the TGI [1] was 2.02 µM, the TGI [14] was 2.23 µM and the TGI [17] was 28.8 µM. The TGI [2] was 25.8 µM, the TGI [20] was 2.63 µM and the TGI [21] was 33.4 µM. The TGI [23] was 1.04 µM, the TGI [24] was 3.57 µM and the TGI [26] was 0.826 µM. It also gave a TGI [29] of 2.27 µM, a TGI [30] of 4.44 µM and a TGI [35] of 3.37 µM. The TGI [36] was 1.99 µM, the TGI [37] was 3.51 µM and the TGI [38] was 3.16 µM. The TGI [55] was 1.71 µM, the TGI [56] was 0.377 µM and the TGI [46] was 0.29 µM. For the same compound, the TGI [49] was 27.6 µM, the TGI [52] was 3.01 µM and the TGI [53] was 3.05 µM. It also gave a TGI [13] of 2.67 µM.

Work on `COc1cccc(Nc2ncnc3cc(NC(=O)CCl)ccc23)c1` yielded a GI50 [1] of 1.72 µM, a TGI [1] of 3.81 µM and a GI50 [16] of 1.5 µM. It also gave a TGI [16] of 3.22 µM, a GI50 [17] of 1.15 µM and a TGI [17] of 2.44 µM. It also gave a GI50 [2] of 1.27 µM, a TGI [2] of 2.6 µM and a GI50 [18] of 1.32 µM. The TGI [18] was 3.08 µM, the GI50 [19] was 1.02 µM and the TGI [19] was 2.47 µM. The GI50 [20] was 1.23 µM, the TGI [20] was 2.6 µM and the GI50 [21] was 1.91 µM. For the same compound, the TGI [21] was 4.55 µM, the GI50 [22] was 0.392 µM and the TGI [22] was 2.16 µM. The GI50 [57] was 0.388 µM, the TGI [57] was 1.63 µM and the GI50 [23] was 0.821 µM. It also gave a TGI [23] of 2.21 µM, a GI50 [24] of 0.768 µM and a TGI [24] of 2.22 µM. The GI50 [25] was 0.789 µM, the TGI [25] was 3.19 µM and the GI50 [26] was 0.343 µM. It also gave a TGI [26] of 2 µM, a GI50 [27] of 1.12 µM and a TGI [27] of 2.46 µM. It also gave a GI50 [3] of 1.84 µM, a TGI [3] of 8.15 µM and a GI50 [29] of 1.68 µM. The TGI [29] was 3.19 µM, the GI50 [4] was 1.55 µM and the TGI [4] was 3.1 µM. The GI50 [31] was 1.25 µM, the TGI [31] was 2.55 µM and the GI50 [32] was 1.23 µM. The TGI [32] was 2.69 µM, the GI50 [33] was 1.06 µM and the TGI [33] was 2.31 µM. The GI50 [34] was 0.353 µM, the TGI [34] was 1.62 µM and the GI50 [5] was 0.33 µM. For the same compound, the TGI [5] was 1.12 µM, the GI50 [35] was 1.65 µM and the TGI [35] was 3.24 µM. It also gave a GI50 [36] of 1.48 µM, a TGI [36] of 3.11 µM and a GI50 [58] of 1.07 µM. The TGI [58] was 2.51 µM, the GI50 [37] was 1.41 µM and the TGI [37] was 3.02 µM. For the same compound, the GI50 [38] was 1.27 µM, the TGI [38] was 3.54 µM and the GI50 [39] was 1.7 µM. For the same compound, the TGI [39] was 3.4 µM, the GI50 [40] was 1.81 µM and the TGI [40] was 3.7 µM. It also gave a GI50 [7] of 1.61 µM, a TGI [7] of 3.02 µM and a GI50 [41] of 1.88 µM. The TGI [41] was 5.16 µM, the GI50 [42] was 1.39 µM and the TGI [42] was 3 µM. For the same compound, the GI50 [43] was 1.11 µM, the TGI [43] was 2.43 µM and the GI50 [44] was 1.61 µM. For the same compound, the TGI [44] was 3.92 µM, the GI50 [55] was 0.499 µM and the TGI [55] was 1.85 µM. It also gave a GI50 [45] of 1.36 µM, a TGI [45] of 2.9 µM and a GI50 [8] of 0.379 µM. It also gave a TGI [8] of 2.28 µM, a GI50 [56] of 1.52 µM and a TGI [56] of 2.92 µM. For the same compound, the GI50 [9] was 1.42 µM, the TGI [9] was 3.24 µM and the GI50 [10] was 1.48 µM. It also gave a TGI [10] of 3.06 µM, a GI50 [48] of 1.56 µM and a TGI [48] of 4.49 µM. The GI50 [49] was 1.13 µM, the TGI [49] was 2.48 µM and the GI50 [11] was 0.568 µM. It also gave a TGI [11] of 2.25 µM, a GI50 [50] of 1.2 µM and a TGI [50] of 2.52 µM. For the same compound, the GI50 [12] was 1.46 µM, the TGI [12] was 2.94 µM and the GI50 [51] was 0.612 µM. The TGI [51] was 2.1 µM, the GI50 [52] was 1.58 µM and the TGI [52] was 3.15 µM. The GI50 [53] was 1.08 µM, the TGI [53] was 2.34 µM and the GI50 [54] was 1.69 µM. For the same compound, the TGI [54] was 3.48 µM.
